Values quoted from earlier work in patent US6629995B1, “Camptothecin conjugates” (priority 2000, dated 2003).

What was measured:
[1] = tested on: human colon cancer xenografts; conditions: mouse, in vivo
[2] = administered intravenously
[3] = tested on: nontumorigenic and tumorigenic human cells
[4] = tested on: human tumor xenografts; conditions: nude mice
[5] = tested on: beta cells of the pancreas; conditions: in vivo

CC[C@@]1(O)C(=O)OCc2c1cc1n(c2=O)Cc2cc3cc4c(cc3nc2-1)OCO4 [10,11 MD, 10,11-Methylendioxy-20(S)-Camptothecin]
anticancer activity against human colon cancer xenografts [1]: high anticancer activity

CC[C@@](O)(C(=O)[O-])c1cc2n(c(=O)c1CO)Cc1cc3ccccc3nc1-2.[Na+] [CPT Na+, camptothecin sodium salt]
potency in clinical trials [2]: low potency
toxicity in clinical trials [2]: high toxicity

CC[C@@]1(O)C(=O)OCc2c1cc1n(c2=O)Cc2cc3ccccc3nc2-1 [CPT, 20(S)-camptothecin]
solubility in water: insoluble in water
effect on nontumorigenic cells ([3]; nontumorigenic human cells in vitro): cytostatic
effect on tumorigenic cells ([3]; tumorigenic human cells in vitro): cytotoxic

CC[C@@]1(O)C(=O)OCc2c1cc1n(c2=O)Cc2cc3c(N)cccc3nc2-1 [Example 9AC, 9-Amino-20(S)-Camptothecin]
anticancer activity against human colon cancer xenografts [1]: high anticancer activity

CC[C@@]1(O)C(=O)OCc2c1cc1n(c2=O)Cc2cc3c([N+](=O)[O-])cccc3nc2-1 [Example 9NC, 9-nitrocamptothecin]
activity against human tumor xenograft models [4]: high activity

CN(N=O)C(=O)N[C@@H]1[C@@H](O)[C@H](O)[C@@H](CO)O[C@@H]1O [Streptozoticin]
accumulation in tissue [5]: preferentially accumulate in the beta cells of the pancreas
